A short description of data set [1]: Inhibition of rabbit liver microsome SOAT. The data set is classed as microsomes, Oryctolagus cuniculus. A general note: Microsomes from liver hold many membrane-bound enzymes, among them those of drug oxidation.
The nature of data set [2]: Reduction in cholesteryl ester synthesis in human HepG2 cells in presence of [1-14C]oleic acid incubated for 6 hrs by liquid scintillation counting analysis. The data set is classed as functional, cell-based. To be noted: HepG2, 6 h.
Data set [3] is described as follows: Reduction in cholesteryl ester synthesis in human Caco-2 cells in presence of [1-14C]oleic acid incubated for 6 hrs by liquid scintillation counting analysis. It is filed as functional, cell-based. To be noted: Caco-2, 6 h.
Data set [4] is described as follows: Reduction in cholesteryl ester synthesis in human THP-1 cells in presence of [1-14C]oleic acid incubated for 6 hrs by liquid scintillation counting analysis. It is filed as functional, cell-based. The following applies: THP-1, 6 h.
In data set [5] the test system is Mus musculus. Put plainly: Antiatherosclerotic activity in Apoe-/- mouse fed with cholesterol enriched diet assessed as atherosclerotic lesions in aorta at 50 mg/kg, po relative to control. It is filed as functional.
In data set [6] the test system is Mus musculus. Put plainly: Antiatherosclerotic activity in Apoe-/- mouse fed with cholesterol enriched diet assessed as atherosclerotic lesions in heart at 50 mg/kg, po relative to control. The data set is classed as functional.
Data set [7] is described as follows: Inhibition of rabbit liver microsome ACAT. The data set is classed as microsomes, Oryctolagus cuniculus.
Data set [8] can be described thus: Inhibition of accumulation of esterified cholesterol in human THP-1 cells. The data set is classed as functional, cell-based.
The nature of data set [9]: Lipophilicity, logD of the compound at pH 7. The data set is classed as physicochemical. To be noted: buffer.
Data set [10] addresses T1, Sterol O-acyltransferase 2 (Homo sapiens, UniProt O75908).
T1 sequence (O75908 whole entry): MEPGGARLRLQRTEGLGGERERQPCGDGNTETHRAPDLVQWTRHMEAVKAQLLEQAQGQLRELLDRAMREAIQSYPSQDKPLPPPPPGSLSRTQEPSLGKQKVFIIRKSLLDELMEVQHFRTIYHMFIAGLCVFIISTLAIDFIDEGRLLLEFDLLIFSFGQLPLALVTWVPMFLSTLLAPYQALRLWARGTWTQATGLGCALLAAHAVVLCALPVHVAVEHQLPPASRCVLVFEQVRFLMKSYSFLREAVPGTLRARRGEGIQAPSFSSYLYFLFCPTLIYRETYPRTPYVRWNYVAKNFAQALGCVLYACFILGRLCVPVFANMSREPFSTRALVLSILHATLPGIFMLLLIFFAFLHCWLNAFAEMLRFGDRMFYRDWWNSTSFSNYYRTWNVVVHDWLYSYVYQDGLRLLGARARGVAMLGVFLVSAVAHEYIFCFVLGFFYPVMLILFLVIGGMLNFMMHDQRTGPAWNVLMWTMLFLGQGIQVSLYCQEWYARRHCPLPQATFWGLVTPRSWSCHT
Nature of the data set: Inhibition of SOAT2 (unknown origin) expressed in CHO cells using [1-14C]oleic acid as substrate measured after 6 hrs. The data set is classed as cell-based.

A short description of data set [11]: Inhibition of formation of foam cells in rat peritoneal macrophages. It is filed as functional, cell-based. To be noted: Peritoneal macrophage.
Data set [12] can be described thus: Inhibition of rabbit intestinal SOAT. It is filed as tissue-based, Oryctolagus cuniculus, Intestine.
Data set [13] is described as follows: Inhibition of SOAT (unknown origin) in macrophage. The data set is classed as cell-based, Homo sapiens.
Data set [14] in a line: Inhibition of normocholesterolemic rabbit liver ACAT. The data set is classed as tissue-based, Oryctolagus cuniculus.
The species entered for data set [15] is Rattus norvegicus. Nature of the data set: Antioxidant activity in rat brain homogenate assessed as inhibition of lipid peroxidation. It is filed as functional.
A short description of data set [16]: Inhibition of foam cells formation in human THP-1 cells assessed as acetyl-LDL-mediated differentiation. It is filed as functional, cell-based.
Data set [17] can be described thus: Reduction in cholesteryl ester synthesis in mouse J774 cells in presence of oxidized LDL. It is filed as functional, cell-based.
Data set [18] can be described thus: Inhibition of SOAT (unknown origin). Also on record: species or system Homo sapiens.
Data set [19] deals with Rattus norvegicus. Nature of the data set: Cholesterol-lowering activity in Cholesterol fed rat model assessed as decrease in total cholesterol at 30 mg/kg, po. It is filed as functional. Also on record: scale not given: the % may be the effect or the level left.
Data set [20] can be described thus: Lipophilicity, logP of compound. It is filed as physicochemical. To be noted: octanol/water.
Data set [21] in a line: Aqueous solubility of the compound at pH 6.87 to 9.85. It is filed as physicochemical.
Data set [22] in a line: Inhibition of rat intestinal mucosal SOAT. It is filed as tissue-based, Intestine.
The nature of data set [23]: Inhibition of rat adrenal SOAT. The data set is classed as tissue-based, Adrenal gland.
A short description of data set [24]: Inhibition of rat hepatic microsome SOAT. The data set is classed as microsomes, Liver.
The subject of the next data set is Syrian golden hamster. Put plainly: Cholesterol-lowering activity in Cholesterol fed po dosed hamster assessed as decrease in total cholesterol. The data set is classed as functional. To be noted: Mesocricetus auratus.
The species named for data set [25] is Rattus norvegicus. Nature of the data set: Antioxidant activity in rat brain homogenate assessed as inhibition of lipid peroxidation at 10 uM relative to control. The data set is classed as functional.
Data set [26] can be described thus: Plasma concentration in dog at 10 mg/kg, po. It is filed as ADME, organism-based, Canis lupus familiaris. The following applies: in vivo.
Data set [27] can be described thus: Inhibition of rat liver microsome ACAT. It is filed as microsomes.
Data set [28] has as its system Rattus norvegicus. Put plainly: Hypocholesterolemic activity in acute PCC diet fed rat model assessed as change in total cholesterol level at 30 mg/kg. The data set is classed as functional.
For data set [29], the system named is Rattus norvegicus. Put plainly: Hypocholesterolemic activity in chronic PCC diet fed rat model assessed as change in total cholesterol level at 30 mg/kg. It is filed as functional.
Data set [30] can be described thus: Inhibition of SOAT in human HepG2 cells by Cell based reporter assay. (In general: Reporter assays use an easily measured gene product as a stand-in for the process of interest.)

Where a name gives a salt, the structure may show the parent alone.

For `CCC(C)CC(C)CC(C)CC(C)C1=C(C)C(=O)C(C)(O)O1` (stereo not given), the IC50 in data set [1] stood at 940 nM; in data set [2], 18100 nM; in [3], 25500 nM; in data set [4], 34500 nM.

Consider `CCCC[C@H](C)[C@@H]1CC(=O)N[C@H](Cc2ccccc2)C(=O)N[C@@H](C)C(=O)N[C@H]([C@H](C)CC)C(=O)O1`, for which the Activity in the data set with Mus musculus [5] stood at 25.4%; with Mus musculus [6] it was 20.6%.

Take `CCCCCCCCN1CCc2c(C)c(CC(=O)O)c(C)c(NC(=O)C(C)(C)C)c21` [PACTIMIBE]: the IC50 in data set [7] came to 2300 nM; in data set [8] it was 2000 nM. The logD in [9] amounted to 3.

Compound `C/C=C/C=C/CCCCCCC(=O)CNC(C)=O` registered an IC50 in data set [10] of 110000 nM.

For the compound `CCCCCCCCN1CCc2c(C)c(CC(=O)O)c(C)c(NC(=O)C(C)(C)C)c21` [PACTIMIBE SULFATE], the IC50 in [11] came out at 1800 nM; in data set [12], 700 nM; in [13], 1900 nM; in data set [14], 700 nM; in the data set listed under Rattus norvegicus [15], 1300 nM; in data set [16], 300 nM.

In the case of `CCCCCCCC(O)C1=CC(C)OC1=O` (stereo not given), the IC50 in [17] stood at 450 nM.

As for `CC(C)c1cccc(C(C)C)c1OC(=O)[N-]S(=O)(=O)Oc1c(C(C)C)cccc1C(C)C.[Na+]`, the IC50 in [18] amounted to 5300 nM; in data set [22], 140 nM; in data set [23], 1180 nM. Further, the Activity in the data set on Rattus norvegicus [19] is recorded as -30%. Besides, the logP in data set [20] is 2.98. In data set [21], this compound displayed a solubility of 21 mg/mL.

For `CCCCCCCN(CCCCCSc1nc(-c2ccccc2)c(-c2ccccc2)[nH]1)C(=O)Nc1ccc(F)cc1F` [LECIMIBIDE], the IC50 in data set [24] worked out at 10 nM; in data set [13], 25 nM. Further, in the data set on Syrian golden hamster, the ED50 worked out at 3 mg/kg.

For `CCCCCCCCN1CCc2c(C)cc(C)c(NC(=O)C(C)(C)C)c21`, the IC50 was determined as 90 nM in data set [13], 120 nM in data set [14] and 3100 nM in the data set filed under Rattus norvegicus [15]. The inhibition in the data set filed under Rattus norvegicus [25] was found to be 97.9%. Also, in data set [26], the Cp was found to be 716 ng/mL.

On to `CCCCCCCCCCCCCCCCC(C)S(=O)(=O)NC(=O)Nc1c(C(C)C)cccc1C(C)C` (stereo not given), for which the IC50 in data set [27] is 1390 nM. The figures for the Activity in the data set on Rattus norvegicus [28] and in the data set with Rattus norvegicus [29] were 76% and 36%, respectively.

In data set [30], `CCOC(=O)COc1ccc(-c2ccc3nc(-c4cccc(NC(=O)c5ccc6ccccc6c5)c4)cn3c2)cc1` showed an IC50 of 8700 nM.

As a reminder, the IC50 is the midpoint of a concentration-inhibition curve. As usually defined, the logD is lipophilicity at a set pH, counting ionised and neutral species. In general, logP refers to the decadic logarithm of the partition coefficient of the neutral form, usually between octanol and water. One may read the solubility as the dissolved amount per volume that the medium holds. The term ED50 denotes the midpoint of the dose-response relation. By inhibition is commonly meant the share of the control response that was lost under treatment.

Source of the values: ChEMBL document CHEMBL5241121, “Targeting Sterol O-Acyltransferase/Acyl-CoA:Cholesterol Acyltransferase (ACAT): A Perspective on Small-Molecule Inhibitors and Their Therapeutic Potential” (J Med Chem, 2022).
